Data: doi:10.1101/692707v2 (biorxiv, 2020)
pKd: −log10 of the molar value. Each block holds one molecule with its values, some of them ahead of it.

What was measured:
Assay type in all cases: binding
YdiU^475 [1] = target: T1, YdiU^475 (Escherichia coli, UniProt P77649); experiment: SPR
T1 sequence (P77649 1-475): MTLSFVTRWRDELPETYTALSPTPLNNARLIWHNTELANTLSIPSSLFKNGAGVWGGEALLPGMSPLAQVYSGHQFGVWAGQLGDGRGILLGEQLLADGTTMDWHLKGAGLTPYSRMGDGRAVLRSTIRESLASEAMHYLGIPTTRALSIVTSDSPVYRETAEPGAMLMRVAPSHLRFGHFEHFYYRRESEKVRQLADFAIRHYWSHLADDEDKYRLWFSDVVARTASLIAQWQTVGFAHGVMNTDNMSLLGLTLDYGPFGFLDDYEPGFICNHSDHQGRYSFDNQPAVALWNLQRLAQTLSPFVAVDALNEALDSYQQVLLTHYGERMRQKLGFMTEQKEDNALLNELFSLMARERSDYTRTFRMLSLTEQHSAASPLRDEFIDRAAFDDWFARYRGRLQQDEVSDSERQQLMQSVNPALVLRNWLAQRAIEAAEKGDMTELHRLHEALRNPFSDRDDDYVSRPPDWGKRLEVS

YdiU^475 [2] = target: T1, YdiU^475; experiment: DSF on Uncle platform; conditions: 2 mM Mn2+, Tm of complex, not a shift, apo 38.3 °C (with 5 mM EDTA)
YdiU^475 [3] = target: T1, YdiU^475; experiment: X-ray crystal structure; conditions: Mg2+, active site

pKd (YdiU^475 [1]): ~6.85
SMILES: O=c1ccn([C@@H]2O[C@H](COP(=O)(O)NP(=O)(O)OP(=O)(O)O)[C@@H](O)[C@H]2O)c(=O)[nH]1 [UMPNPP]

Tm1 (YdiU^475 [2]; 1 mM ATP): 50.3 °C
SMILES: Nc1ncnc2c1ncn2[C@@H]1O[C@H](COP(=O)(O)OP(=O)(O)OP(=O)(O)O)[C@@H](O)[C@H]1O [ATP]

Tm1 (YdiU^475 [2]; 1 mM UTP): 40.6 °C
SMILES: O=c1ccn([C@@H]2O[C@H](COP(=O)(O)OP(=O)(O)OP(=O)(O)O)[C@@H](O)[C@H]2O)c(=O)[nH]1 [UTP]

X-ray crystal structure (YdiU^475 [3]; together with imidodiphosphate): 6III (YdiU-AMP-imidodiphosphonic acid)
SMILES: Nc1ncnc2c1ncn2[C@@H]1O[C@H](COP(=O)(O)O)[C@@H](O)[C@H]1O [AMP]

Further lines, the molecule ahead of its results:

SMILES: Nc1ncnc2c1ncn2[C@@H]1O[C@H](COP(=O)(O)OP(=O)(O)NP(=O)(O)O)[C@@H](O)[C@H]1O [AMPNPP]
pKd (YdiU^475 [1]): ~4.74

SMILES: O=P(O)(O)NP(=O)(O)O [imidodiphosphonic acid]
X-ray crystal structure (YdiU^475 [3]; together with AMP): 6III (YdiU-AMP-imidodiphosphonic acid)
